Reference: PMC11603275, “Synthesis and Antimicrobial Evaluation of New 1,2,4-Triazolo[1,5-a]pyrimidine-Based Derivatives as Dual Inhibitors of Bacterial DNA Gyrase and DHFR” (ACS Omega, 2024)
Converted amounts (≈) assume the structure as drawn.

What was measured:
[1] = test system: B. subtilis; assay: Modified disk diffusion, inhibition zone; details: B. subtilis (G+)
[2] = test system: S. aureus; assay: Modified disk diffusion, inhibition zone; details: S. aureus (G+)
[3] = test system: E. coli; assay: Modified disk diffusion, inhibition zone; details: E. coli (G-)
[4] = test system: P. aeruginosa; assay: Modified disk diffusion, inhibition zone; details: P. aeruginosa (G-)
[5] = test system: A. flavus; assay: Modified disk diffusion, inhibition zone; details: A. flavus (fungi)
[6] = test system: C. albicans; assay: Modified disk diffusion, inhibition zone; details: C. albicans (fungi)
[7] = test system: B. subtilis; assay: MIC assay, 2-fold serial dilution in 96-well microtiter plate; format: cell-based, Bacillus subtilis (ATCC 6051); details: Bacillus subtilis, read-out: MIC
Experimental: (§1) The outcomes of this in vitro assay test align with the results of the antimicrobial sensitivity test.
(§2) Appendix A (Supplementary File) provides experimental details.
(§3) In 96-well microtiter plates and […] of fresh bacterial culture of a single McFarland unit overnight, a double serial dilution of each compound […] in sterile standard saline were prepared to every single source well. […] The plates were incubated at 37 °C overnight. As an indicator of bacterial growth, […] of p-iodonitrotetrazolium violet (INT) was added to each well and incubated at 37 °C for 30 min. […] The colorless tetrazolidium salt acts as an electron accepter and is reduced to a red colored formazan product by biological activity organisms. Where bacterial growth was inhibited, the solution in the well remained clear after incubation with INT.

[8] = test system: S. aureus; assay: as above; format: cell-based, Staphylococcus aureus (ATCC 12600); details: Staphylococcus aureus, read-out: MIC
Experimental: as §1, §2, §3

[9] = test system: E. coli; assay: as above; format: cell-based, Escherichia coli (ATCC 11775); details: Escherichia coli, read-out: MIC
Experimental: as §1, §2, §3

[10] = test system: P. aeruginosa; assay: as above; format: cell-based, Pseudomonas aeuroginosa (ATCC 10145); details: Pseudomonas aeruginosa, read-out: MIC
Experimental: as §1, §2, §3

[11] = test system: B. subtilis; assay: Minimum bactericidal concentration (MBC) assay; format: cell-based, Bacillus subtilis; details: Bacillus subtilis, read-out: MBC
Text: (§4) The MBC differs from the MIC. […] Unlike the MBC, which leads to mortality, the MIC hinders bacterial growth without causing death.[41] The common expression for MBC is MBC50, signifying the antibiotic concentration that eliminates 50% of the initial bacterial population.[42]

[12] = test system: S. aureus; assay: Minimum bactericidal concentration (MBC) assay; format: cell-based, Staphylococcus aureus; details: Staphylococcus aureus, read-out: MBC
Text: as §4

[13] = test system: E. coli; assay: Minimum bactericidal concentration (MBC) assay; format: cell-based, Escherichia coli; details: Escherichia coli, read-out: MBC
Text: as §4

[14] = test system: P. aeruginosa; assay: Minimum bactericidal concentration (MBC) assay; format: cell-based, Pseudomonas aeuroginosa; details: Pseudomonas aeruginosa, read-out: MBC
Text: as §4

[15] = test system: A. flavus; assay: Antifungal MIC assay, 2-fold serial dilution; format: cell-based, Aspergillus flavus; details: Aspergillus flavus, read-out: MIC
[16] = test system: C. albicans; assay: Antifungal MIC assay, 2-fold serial dilution; format: cell-based, Candida albicans; details: Candida albicans, read-out: MIC
[17] = biological target: T1, E. coli DNA gyrase (Escherichia coli, UniProt P0AES6); assay: DNA gyrase inhibitory (supercoiling) assay; format: biochemical
T1 construct: purchased Inspiralis
Experimental: (§5) IC50 values were determined using seven different inhibitor concentrations and then calculated using the GraphPad Prism 6.0 software.
All the final compounds were tested for E. coli DNA gyrase inhibitory activity in a supercoiling assay. Activities were determined on streptavidin-coated 96-well microtiter plates from Thermo scientific Pierce. […] After washing off the unbound oligonucleotide, the enzyme test was performed. […] After that, the TF buffer (50 mM NaOAc with pH 5.0, 50 mM NaCl and 50 mM MgCl2) was added to terminate the enzymatic reaction. After additional incubation for 30 min at rt, during which biotin-oligonucleotide-plasmid triplex was formed, the unbound plasmid was washed off using TF buffer and SybrGOLD in T10 buffer (10 mM Tris HCl with pH 8.0 and 1 mM EDTA) was added. […] Initial screening was done at 100 or 10 μM concentration of inhibitors. […] GraphPad Prism software was used to calculate the IC50 values. The result is given as the average value of three independent measurements.

[18] = biological target: T2, DHFR E. coli (Escherichia coli, UniProt P0ABQ4); assay: DHFR inhibitory assay; format: biochemical
T2 construct: purchased Inspiralis
Experimental: as §5

[19] = test system: Gram-positive and Gram-negative bacteria (B. subtilis, S. aureus, E. coli, P. aeruginosa); assay: Disk diffusion, inhibition zones summarised over the tested bacterial strains; details: over the four tested bacterial strains

T2 sequence (P0ABQ4 whole entry): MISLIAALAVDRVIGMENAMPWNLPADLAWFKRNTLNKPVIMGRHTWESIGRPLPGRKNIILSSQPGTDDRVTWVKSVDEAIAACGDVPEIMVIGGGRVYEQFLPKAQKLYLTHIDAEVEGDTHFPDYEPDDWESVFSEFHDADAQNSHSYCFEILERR

Row | Structure (SMILES) | melting point | Inhibition Zone (IZ) Diameter [1] | Inhibition Zone (IZ) Diameter [2] | Inhibition Zone (IZ) Diameter [3] | Inhibition Zone (IZ) Diameter [4] | Inhibition Zone (IZ) Diameter [5] | Inhibition Zone (IZ) Diameter [6] | MIC [7] | MIC [8] | MIC [9] | MIC [10] | MBC [11] | MBC [12] | MBC [13] | MBC [14] | MIC [15] | MIC [16] | IC50 [17] | IC50 [18] | Inhibition Zone (IZ) Diameter [19]
1 | c1ccc(-c2cc(-c3ccccc3)n3nc(-c4ccccc4)nc3n2)cc1 [Compound 9a, 2,5,7-Triphenyl-1,2,4-triazolo[1,5-a]pyrimidine] | 210 to 212 °C | 12 mm/mL | 14 | 14 mm/mL | 12 mm/mL | 7 mm/mL | 10 mm |  |  |  |  |  |  |  |  |  |  |  |  | 
2 | Clc1ccc(-c2cc(-c3ccccc3)nc3nc(-c4ccccc4)nn23)cc1 [Compound 9b, 7-(4-Chlorophenyl)-2,5-diphenyl-1,2,4-triazolo[1,5-a]pyrimidine] | 214 to 216 °C | 21 mm/mL | 23 | 23 mm/mL | 24 mm/mL | 11 mm/mL | 15 mm |  |  |  |  |  |  |  |  |  |  |  |  | 
3 | Cc1ccc(-c2cc(-c3ccccc3)nc3nc(-c4ccccc4)nn23)cc1 [Compound 9c, 2,5-Diphenyl-7-p-tolyl-1,2,4-triazolo[1,5-a]pyrimidine] | 218 to 220 °C | 11 mm/mL | 15 | 13 mm/mL | 13 mm/mL | 7 mm/mL | 10 mm |  |  |  |  |  |  |  |  |  |  |  |  | 
4 | COc1ccc(-c2cc(-c3ccccc3)nc3nc(-c4ccccc4)nn23)cc1 [Compound 9d, 7-(4-Methoxyphenyl)-2,5-diphenyl-1,2,4-triazolo[1,5-a]pyrimidine] |  | 35 mm/mL | 35 | 33 mm/mL | 34 mm/mL | 27 mm/mL | 30 mm | 0.038 ± 0.002 µM (≈ 0.0144 µg/mL) | 0.039 ± 0.002 µM (≈ 0.0148 µg/mL) | 0.073 ± 0.005 µM (≈ 0.0276 µg/mL) | 0.075 ± 0.005 µM (≈ 0.0284 µg/mL) | 0.064 ± 0.003 µM (≈ 0.0242 µg/mL) | 0.071 ± 0.004 µM (≈ 0.0269 µg/mL) | 0.102 ± 0.007 µM (≈ 0.0386 µg/mL) | 0.109 ± 0.007 µM (≈ 0.0412 µg/mL) | 21.5 ± 1 µM (≈ 8.14 µg/mL) | 26.3 ± 1 µM (≈ 9.95 µg/mL) | 217 ± 13 nM | 5.9 ± 0.2 µM | 
5 | Clc1ccc(-c2cc(-c3ccccc3)n3nc(-c4ccccc4)nc3n2)cc1 [Compound 9e, 5-(4-Chlorophenyl)-2,7-diphenyl-1,2,4-triazolo[1,5-a]pyrimidine] | 260 to 262 °C | 10 mm/mL | 12 | 12 mm/mL | 11 mm/mL | 5 mm/mL | 8 mm |  |  |  |  |  |  |  |  |  |  |  |  | 
6 | Clc1ccc(-c2cc(-c3ccc(Cl)cc3)n3nc(-c4ccccc4)nc3n2)cc1 [Compound 9f, 5,7-Bis(4-Chlorophenyl)-2-phenyl-1,2,4-triazolo[1,5-a]pyrimidine] | 202 to 204 °C | 14 mm/mL | 15 | 15 mm/mL | 18 mm/mL | 8 mm/mL | 12 mm |  |  |  |  |  |  |  |  |  |  |  |  | 
7 | Cc1ccc(-c2cc(-c3ccc(Cl)cc3)nc3nc(-c4ccccc4)nn23)cc1 [Compound 9g, 5-(4-Chlorophenyl)-2-phenyl-7-p-tolyl-1,2,4-triazolo[1,5-a]pyrimidine] | 248 to 250 °C | 19 mm/mL | 20 | 20 mm/mL | 18 mm/mL | 9.0 mm/mL | 11 mm |  |  |  |  |  |  |  |  |  |  |  |  | 18–20 mm
8 | COc1ccc(-c2cc(-c3ccc(Cl)cc3)nc3nc(-c4ccccc4)nn23)cc1 [Compound 9h, 5-(4-Chlorophenyl)-7-(4-methoxyphenyl)-2-phenyl-1,2,4-triazolo[1,5-a]pyrimidine] |  | 9 mm/mL |  | 11 mm/mL | 12 mm/mL | 5 mm/mL |  |  |  |  |  |  |  |  |  |  |  |  |  | 
9 | Cc1ccc(-c2cc(-c3ccccc3)n3nc(-c4ccccc4)nc3n2)cc1 [Compound 9i, 2,7-Diphenyl-5-p-tolyl-1,2,4-triazolo[1,5-a]pyrimidine] |  | 28 mm/mL |  | 30 mm/mL | 29 mm/mL | 17 mm/mL |  |  |  |  |  |  |  |  |  |  |  |  |  | 
10 | Cc1ccc(-c2cc(-c3ccc(Cl)cc3)n3nc(-c4ccccc4)nc3n2)cc1 [Compound 9j, 7-(4-Chlorophenyl)-2-phenyl-5-p-tolyl-1,2,4-triazolo[1,5-a]-pyrimidine] |  | 20 mm/mL |  | 20 mm/mL | 20 mm/mL | 10 mm/mL |  |  |  |  |  |  |  |  |  |  |  |  |  | 
11 | Cc1ccc(-c2cc(-c3ccc(C)cc3)n3nc(-c4ccccc4)nc3n2)cc1 [Compound 9k, 2-Phenyl-5,7-di-p-tolyl-1,2,4-triazolo[1,5-a]pyrimidine] | 224 to 226 °C | 32 mm/mL | 32 | 30 mm/mL | 30 mm/mL | 22 mm/mL | 25 mm |  |  |  |  |  |  |  |  |  |  |  |  | 30–32 mm
12 | COc1ccc(-c2cc(-c3ccc(C)cc3)nc3nc(-c4ccccc4)nn23)cc1 [Compound 9l, 7-(4-Methoxyphenyl)-2-phenyl-5-p-tolyl-1,2,4-triazolo[1,5-a]pyrimidine] | 222 to 224 °C | 23 mm/mL | 26 | 23 mm/mL | 22 mm/mL | 15 mm/mL | 17 mm |  |  |  |  |  |  |  |  |  |  |  |  | 
13 | COc1ccc(-c2cc(-c3ccccc3)n3nc(-c4ccccc4)nc3n2)cc1 [Compound 9m, 5-(4-Methoxyphenyl)-2,7-diphenyl-1,2,4-triazolo[1,5-a]pyrimidine] | 222 to 224 °C | 31 mm/mL | 32 | 30 mm/mL | 30 mm/mL | 20 mm/mL | 23 mm |  |  |  |  |  |  |  |  |  |  |  |  | approximately 30 mm
